For 23 molecules, IC50 results are on record in patent US7868013B2, “Cycloalkyl substituted pyrimidinediamine compounds and their uses” (Rigel Pharmaceuticals, Inc., priority 2004, dated 2011).

The test system of one experiment is A549 (lung carcinoma). Put plainly: In vitro antiproliferation assay, A549 cells (TABLE 1 6 point assay; TABLE 2). The class given is cell-based. The method, then:
(§1) Certain compounds were tested against other cell types for their ability to inhibit proliferation in standard antiproliferation assays.

Experiment [1] has as its system H1299 (non-small cell lung carcinoma). Put plainly: In vitro antiproliferation assay, H1299 cells (TABLE 1 6 point assay; TABLE 2). The class given is cell-based. How it is done: as §1
[2] abbreviates: Homo sapiens, A549, A549 cells, 6 point assay, read-out: A549, 6pt (IC50, inhibition of proliferation).
The mark [3] stands for this setting: Homo sapiens, NCI-H1299, H1299 cells, 6 point assay, read-out: H1299, 6pt (IC50, inhibition of proliferation).
Setting [4] is: Homo sapiens, A549, 6 point assay, A549 cells, read-out: IC50, A549 cells.
[5] abbreviates: Homo sapiens, NCI-H1299, 6 point assay, H1299 cells, read-out: IC50, H1299 cells.
[6] abbreviates: 6 point assay, A549 cells, read-out: IC50, A549 cells.

Like-named read-outs stand apart in the source and are kept apart here.

On to `CN1CCC(Oc2ccc(Nc3ncc(F)c(N[C@H]4[C@@H](C(N)=O)[C@@H]5C=C[C@H]4C5)n3)cc2Cl)CC1` [compound 152, (1R,2R,3S,4S)-N4-(3-Aminocarbonylbicyclo[2.2.1]hept-5-en-2-yl)-N2-[3-chloro-4-(1-methylpiperidin-4-yloxy)phenyl]-5-fluoro-2,4-pyrimidinediamine], for which the IC50 (in the experiment on A549 (lung carcinoma) (setting [2]); in experiment [1] (setting [3])) was at most 100 nM in each case.
Turning to `CC(=O)N1CCN(c2ccc(Nc3ncc(F)c(NC4CCCC4C(N)=O)n3)cc2)CC1` (centres unmarked) [compound 196, N2-[4-(4-Acetylpiperazino)phenyl]-N4-(2-carboxamidocyclopentyl)-5-fluoro-2,4-pyrimidinediamine], the IC50 (in the experiment with A549 (lung carcinoma) (setting [4]); in experiment [1] (setting [5])) was 100 to 1000 nM each time.
Take `Cc1cc(Nc2ncc(F)c(N[C@H]3[C@@H](C(N)=O)[C@H]4C=C[C@@H]3C4)n2)ccc1N1CCN(C)CC1` [compound 155, (1S,2R,3S,4R)-N4-(3-Aminocarbonylbicyclo[2.2.1]hept-5-en-2-yl)-5-fluoro-N2-[3-methyl-4-(4-methylpiperazin-1-yl)phenyl]-2,4-pyrimidinediamine]: the IC50 (in the experiment with A549 (lung carcinoma) (setting [2]); in experiment [1] (setting [3])) was 1000 to 10000 nM each time.
Turning to `Cc1cc(Nc2ncc(F)c(N[C@H]3[C@@H](C(N)=O)[C@@H]4C=C[C@H]3C4)n2)ccc1OC1CCCN(C)C1` (mixture of isomers) [compound 147, (1R,2R,3S,4S)-N4-(3-Aminocarbonylbicyclo[2.2.1]hept-5-en-2-yl)-5-fluoro-N2-[3-methyl-4-(1-methylpiperidin-3(±)-yloxy)phenyl]-2,4-pyrimidinediamine], the IC50 is at most 100 nM in the experiment with A549 (lung carcinoma) (A549 cells, 6 point assay, read-out: A549, 6pt (IC50, inhibition of proliferation)) and at most 100 nM in experiment [1] (H1299 cells, 6 point assay, read-out: H1299, 6pt (IC50, inhibition of proliferation)).
In the case of `Cc1cc(Nc2ncc(F)c(N[C@H]3CCCC[C@H]3C(N)=O)n2)ccc1N1CCN(C)CC1` (racemic) [compound 223, Racemic-cis-N4-(2-aminocarbonylcyclohex-1-yl)-5-fluoro-N2-[3-methyl-4-(4-methylpiperazin-1-yl)phenyl]-2,4-pyrimidinediamine], the IC50 is 100 to 1000 nM in the experiment with A549 (lung carcinoma) (setting [6]) and 1000 to 10000 nM in experiment [1] (setting [5]).
Turning to `NC(=O)[C@@H]1[C@H](Nc2nc(Nc3ccc(C4CCNCC4)cc3)ncc2F)[C@H]2C=C[C@@H]1C2` [compound 273, (1R,2R,3S,4S)-N4-(3-Aminocarbonylbicyclo[2.2.1]hept-5-en-2-yl)-5-fluoro-N2-[4-(piperidin-4-yl)phenyl]-2,4-pyrimidinediamine], the results for the IC50 (in the experiment with A549 (lung carcinoma) (setting [4]); in experiment [1] (setting [5])) were at most 100 nM and 100 to 1000 nM, respectively.
As for `CNC(=O)C1C2C=CC(C2)C1Nc1nc(Nc2ccc(N3CCN(C)CC3)c(C)c2)ncc1F` (racemic) [compound 166, Racemic-(2-exo,3-exo)-N4-[3-(N-methyl)aminocarbonylbicyclo[2.2.1]hept-5-en-2-yl)-5-fluoro-N2-[3-methyl-4-(4-methylpiperazin-1-yl)phenyl]-2,4-pyrimidinediamine], the IC50 (in the experiment with A549 (lung carcinoma) (setting [2]); in experiment [1] (setting [3])) was at most 100 nM each time.
As to `Cc1cc(Nc2ncc(F)c(NC3(C(N)=O)CCCC3)n2)ccc1N1CCN(C)CC1` [compound 248, N4-(1-Aminocarbonylcyclopent-1-yl)-5-fluoro-N2-[3-methyl-4-(4-methylpiperazin-1-yl)phenyl]-2,4-pyrimidinediamine], the IC50 (in the experiment on A549 (lung carcinoma) (setting [4]); in experiment [1] (setting [5])) was over 10000 nM in each case.
For the molecule `CNC(=O)C1C2C=CC(C2)C1Nc1nc(Nc2ccc3c(ccn3CCN(C)C)c2)ncc1F` (racemic) [compound 183, Racemic-(2-exo,3-exo)-N2-[1-(2-dimethylaminoethyl)indol-5-yl]-5-fluoro-N4-[3-methylaminocarbonylbicyclo[2.2.1]hept-5-en-2-yl)-2,4-pyrimidinediamine], the IC50 (with A549 (lung carcinoma) (setting [2]); in experiment [1] (setting [3])) was at most 100 nM throughout.
On to `Cc1cc(Nc2ncc(F)c(N[C@H]3[C@@H](C(=O)NC4CCC4)[C@@H]4C=C[C@H]3C4)n2)ccc1N1CCN(C)CC1` [compound 192, (1R,2R,3S,4S)-N4-[3-(N-Cyclobutyl)aminocarbonylbicyclo[2.2.1]hept-5-en-2-yl]-5-fluoro-N2-[3-methyl-4-(4-methylpiperazin-1-yl)phenyl]-2,4-pyrimidinediamine], for which the IC50 (in the experiment on A549 (lung carcinoma) (setting [2]); in experiment [1] (setting [3])) was at most 100 nM throughout.
As for `CCNC(=O)C1C2C=CC(C2)C1Nc1nc(Nc2ccc3c(c2)CCN3S(C)(=O)=O)ncc1F` (racemic) [compound 182, Racemic-(2-exo,3-exo)-N4-[3-ethylaminocarbonylbicyclo[2.2.1]hept-5-en-2-yl)-5-fluoro-N2-[1-methylsulfonyl-2,3-dihydro-indol-5-yl]-2,4-pyrimidinediamine], the IC50 (with A549 (lung carcinoma) (setting [2]); in experiment [1] (setting [3])) was at most 100 nM in each case.
With `Cc1cc(Nc2ncc(F)c(NC3C4C=CC(C4)C3C(N)=O)n2)ccc1O` (racemic) [compound 250, Racemic-(2-exo,3-exo)-N4-(3-aminocarbonylbicyclo[2.2.1]hept-5-en-2-yl)-5-fluoro-N2-[(4-hydroxy-3-methyl)phenyl]-2,4-pyrimidinediamine], the IC50 (in the experiment on A549 (lung carcinoma) (setting [4]); in experiment [1] (setting [5])) was at most 100 nM throughout.
In the case of `COc1cc(Nc2ncc(F)c(NC3C4C=CC(C4)C3C(N)=O)n2)ccc1S(N)(=O)=O` (racemic) [compound 133, Racemic-(2-exo,3-exo)-N4-(3-aminocarbonylbicyclo[2.2.1]hept-5-en-2-yl)-N2-(4-aminosulfonyl-3-methoxyphenyl)-5-fluoro-2,4-pyrimidinediamine], the IC50 (with A549 (lung carcinoma) (setting [2]); in experiment [1] (setting [3])) was 1000 to 10000 nM each time.
For the molecule `Cc1cc(Nc2ncc(F)c(N[C@H]3CC[C@H](C(N)=O)C3)n2)ccc1N1CCN(C)CC1` [compound 220, (1S,3S)-N4-(3-Aminocarbonylcyclopent-1-yl)-5-fluoro-N2-[3-methyl-4-(4-methylpiperazin-1-yl)phenyl]-2,4-pyrimidinediamine], the IC50 (in the experiment on A549 (lung carcinoma) (setting [4]); in experiment [1] (setting [5])) was 1000 to 10000 nM in each case.
As for `CN1CCN(c2cccc(Nc3ncc(F)c(NC4CCCC4C(N)=O)n3)c2)CC1` (centres unmarked) [compound 195], the IC50 (with A549 (lung carcinoma) (setting [4]); in experiment [1] (setting [5])) was 100 to 1000 nM in each case.
As to `CN1CCN(C(=O)CCCc2ccc(Nc3ncc(F)c(N[C@H]4CCC[C@H]4C(N)=O)n3)cc2)CC1` (racemic) [compound 278, Racemic-cis-N4-(2-aminocarbonylcyclopent-1-yl)-5-fluoro-N2-{4-[(4-methylpiperazin-1-yl)-butan-1-one-4-yl]phenyl}-2,4-pyrimidinediamine], the IC50 (in the experiment with A549 (lung carcinoma) (setting [4]); in experiment [1] (setting [5])) was 1000 to 10000 nM throughout.
Take `Cn1ccc2cc(Nc3ncc(F)c(NC4C5C=CC(C5)C4C(N)=O)n3)ccc21` (racemic) [compound 161, Racemic-(2-exo,3-exo)-N4-[3-aminocarbonylbicyclo[2.2.1]hept-5-ene-2-yl)-5-fluoro-N2-(1-methylindol-5-yl)-2,4-pyrimidinediamine]: the IC50 (in the experiment on A549 (lung carcinoma) (setting [2]); in experiment [1] (setting [3])) was 100 to 1000 nM each time.
Take `CN1CCN(c2ccc(Nc3ncc(F)c(NC4CCCC4C(N)=O)n3)cc2Cl)CC1` (stereo not drawn) [compound 205, (cis)-N4-(2-Carboxamidocyclopent-1-yl)-N2-[3-chloro-4-(4-methylpiperazino)phenyl]-5-fluoro-2,4-pyrimidinediamine]: the IC50 with A549 (lung carcinoma) (setting [6]) fell in the range of 100 to 1000 nM; in experiment [1] (6 point assay, H1299 cells, read-out: IC50, H1299 cells) it was 100 to 1000 nM.
Turning to `CN1CCN(c2ccc(Nc3ncc(F)c(NC4C5C=CC(C5)C4C(N)=O)n3)cc2Cl)CC1` (racemic) [compound 233, Racemic-(2-exo,3-exo)-N4-(3-aminocarbonylbicyclo[2.2.1]hept-5-en-2-yl)-N2-[3-chloro-4-(4-methylpiperazin-1-yl)phenyl]-5-fluoro-2,4-pyrimidinediamine], the IC50 (with A549 (lung carcinoma) (setting [4]); in experiment [1] (setting [5])) was at most 100 nM in each case.
For the molecule `Cc1cc(Nc2ncc(F)c(NC3CCCC3C(N)=O)n2)ccc1N1CCN(C)CC1` (stereo not drawn) [compound 206, (cis)-N4-(2-Carboxamidocyclopent-1-yl)-5-fluoro-N2-[3-methyl-4-(4-methylpiperazino)phenyl]-2,4-pyrimidinediamine], the IC50 was 100 to 1000 nM with A549 (lung carcinoma) (setting [4]); at most 1000 nM with A549 (lung carcinoma) (Homo sapiens, A549, A549, read-out: In Vitro IC50); 100 to 1000 nM in experiment [1] (setting [5]).
`Cc1cc(Nc2ncc(F)c(N[C@H]3CCC[C@H]3C(N)=O)n2)ccc1N1CC2CC1CN2C` (mixture of isomers) [compound 282, Racemic-cis-N4-(2-aminocarbonylcyclopent-1-yl)-5-fluoro-N2-[3-methyl-4-(5-methyl-(1S,4S)-2,5-diazabicyclo[2.2.1]heptan-2-yl)phenyl]-2,4-pyrimidinediamine]: the IC50 (with A549 (lung carcinoma) (setting [4]); in experiment [1] (setting [5])) was 100 to 1000 nM in each case.
`CN1CCN(c2ccc(Nc3ncc(F)c(NC4C5C=CC(C5)C4C(N)=O)n3)cc2C#N)CC1` (racemic) [compound 243, Racemic-(2-exo,3-exo)-N4-(3-aminocarbonylbicyclo[2.2.1]hept-5-en-2-yl)-N2-[3-cyano-4-(4-methylpiperazin-1-yl)phenyl]-5-fluoro-2,4-pyrimidinediamine]: the IC50 (in the experiment on A549 (lung carcinoma) (setting [4]); in experiment [1] (setting [5])) was at most 100 nM throughout.
In the case of `Cc1cc(Nc2ncc(F)c(N[C@@H]3[C@H](C(=O)NC4CC4)[C@H]4C=C[C@@H]3C4)n2)ccc1N1CCN(C)CC1` [compound 191, (1S,2S,3R,4R)-N4-[3-(N-Cyclopropyl)aminocarbonylbicyclo[2.2.1]hept-5-en-2-yl]-5-fluoro-N2-[3-methyl-4-(4-methylpiperazin-1-yl)phenyl]-2,4-pyrimidinediamine], the IC50 in the experiment on A549 (lung carcinoma) (setting [2]) lay in the range of 100 to 1000 nM; in experiment [1] (setting [3]) it was 1000 to 10000 nM.
